Assay [1] concerns the target T1, DDR2 (Homo sapiens, UniProt Q16832).
T1 sequence (Q16832 22-855): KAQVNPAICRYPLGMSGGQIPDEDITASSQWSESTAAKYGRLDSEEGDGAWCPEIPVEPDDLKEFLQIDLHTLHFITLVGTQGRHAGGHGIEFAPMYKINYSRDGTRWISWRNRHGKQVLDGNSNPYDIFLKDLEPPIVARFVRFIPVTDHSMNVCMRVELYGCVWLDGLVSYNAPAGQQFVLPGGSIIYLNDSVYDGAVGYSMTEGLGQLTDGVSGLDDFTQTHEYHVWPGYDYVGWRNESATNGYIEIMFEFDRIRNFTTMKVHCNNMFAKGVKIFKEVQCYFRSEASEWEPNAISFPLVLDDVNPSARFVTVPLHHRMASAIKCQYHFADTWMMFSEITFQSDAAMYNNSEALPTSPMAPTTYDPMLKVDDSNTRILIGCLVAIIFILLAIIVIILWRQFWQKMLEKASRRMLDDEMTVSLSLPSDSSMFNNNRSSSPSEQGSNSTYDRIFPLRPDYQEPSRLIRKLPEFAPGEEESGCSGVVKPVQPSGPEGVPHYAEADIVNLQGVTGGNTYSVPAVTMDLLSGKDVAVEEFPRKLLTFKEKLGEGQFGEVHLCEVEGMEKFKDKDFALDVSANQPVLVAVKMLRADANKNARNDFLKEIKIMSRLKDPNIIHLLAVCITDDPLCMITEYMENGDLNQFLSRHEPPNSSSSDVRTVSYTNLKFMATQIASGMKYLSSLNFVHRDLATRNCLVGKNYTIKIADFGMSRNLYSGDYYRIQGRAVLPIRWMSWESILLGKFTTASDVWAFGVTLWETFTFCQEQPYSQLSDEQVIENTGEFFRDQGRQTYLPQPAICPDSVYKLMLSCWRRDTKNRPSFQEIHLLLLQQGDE
Description: DDR2 cell based assay (phospho-ELISA in HEK293T-DDR2 recombinant cells, collagen II stimulation). The note with it: bovine Type II Collagen stimulation. On the procedure: The inhibition of DDR2 phosphorylation by compounds was evaluated in HEK293T-DDR2 recombinant cells by phospho-ELISA assay. Briefly, HEK293T-DDR2 cells were seeded in poly-D-lysine-coated 24-well plates at a density of 250.000 cells/well and incubated for 1.5 hours at 37° C. and 5% CO2 in DMEM+10% FBS. After that, the medium was changed to serum-free DMEM and cells were incubated for 3 hours. Then. test compounds were added at different concentrations 30 minutes before stimulation with bovine Type II Collagen at 50 μg/ml for further 3 hours. For DDR2 phospho-ELISA assay (DuoSet IC Human Phospho-DDR2; R&D Systems), protein extracts were obtained by adding 60 μl/well of lysis buffer prepared according to the manufacturer's instructions. Protein concentration in the samples was determined by BCA assay and the levels of phospho-DDR2 were determined following R&D Systems indications. Raw data were normalized to maximal inhibition control (0% for normalization) and positive control (100% for normalization; cells treated with […] collagen II) and IC50 parameters were calculated in GraphPad Prism 8.0 software, using sigmoidal dose-response curve fitting with variable slope.
(In general: ELISA stands for enzyme-linked immunosorbent assay.)

The target of assay [2] is T2, DDR1 (Homo sapiens, UniProt Q08345). The assay is described as follows: DDR1 cell based assay (PathHunter U2OS DDR1, collagen II stimulation). Particulars: U2OS-DDR1 cells, bovine Type II Collagen stimulation. The procedure, abridged: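 Receptor activation measured by enzyme-fragment complementation luminescence in engineered U2OS cells. Compound added 30 min before overnight challenge with 20 μg/ml bovine collagen II; data scaled between vehicle and collagen-stimulated controls, IC50 derived by four-parameter variable-slope fitting.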
T2 sequence (Q08345 19-913): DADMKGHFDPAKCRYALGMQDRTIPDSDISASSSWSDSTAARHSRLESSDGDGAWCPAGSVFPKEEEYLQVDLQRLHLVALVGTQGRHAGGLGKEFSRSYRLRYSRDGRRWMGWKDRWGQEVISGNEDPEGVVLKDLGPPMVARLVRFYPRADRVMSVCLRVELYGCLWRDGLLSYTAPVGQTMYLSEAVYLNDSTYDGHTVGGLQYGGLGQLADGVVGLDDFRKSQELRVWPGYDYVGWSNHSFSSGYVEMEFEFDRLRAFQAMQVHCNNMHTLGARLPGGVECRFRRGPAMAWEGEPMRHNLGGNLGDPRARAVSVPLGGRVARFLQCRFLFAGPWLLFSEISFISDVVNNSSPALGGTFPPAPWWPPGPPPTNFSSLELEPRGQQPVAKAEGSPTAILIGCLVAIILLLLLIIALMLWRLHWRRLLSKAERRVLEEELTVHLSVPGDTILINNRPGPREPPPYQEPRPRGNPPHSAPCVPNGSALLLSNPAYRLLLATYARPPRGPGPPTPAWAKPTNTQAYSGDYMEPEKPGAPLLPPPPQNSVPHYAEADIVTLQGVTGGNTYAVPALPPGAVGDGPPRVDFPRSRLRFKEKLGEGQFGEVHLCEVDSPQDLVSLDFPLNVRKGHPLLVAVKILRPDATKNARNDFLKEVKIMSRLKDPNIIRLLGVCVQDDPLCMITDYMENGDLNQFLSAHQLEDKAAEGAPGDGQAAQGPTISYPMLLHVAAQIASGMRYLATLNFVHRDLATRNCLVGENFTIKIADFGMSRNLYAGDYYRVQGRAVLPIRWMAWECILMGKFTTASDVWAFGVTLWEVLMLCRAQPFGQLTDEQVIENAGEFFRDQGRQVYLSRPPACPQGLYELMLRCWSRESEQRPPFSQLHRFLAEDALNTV

In assay [3] the target is T2, DDR1. The assay is described as follows: DDR1 LanthaScreen Europium Kinase Binding assay. The note with it: binding affinity; IC50 converted in Ki using Cheng-Prusoff; read-out: Ki DDR1. The procedure, abridged: (§1)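 Binding by TR-FRET tracer displacement: compounds incubated 1 h at room temperature with 5 nM DDR1 plus 20 nM Kinase Tracer 178, or 5 nM DDR2 plus 10 nM tracer, and 2 nM Eu anti-GST antibody in pH 7.5 HEPES/MgCl2/EGTA/BRIJ35 buffer. 665/615 nm ratio gave four-parameter IC50, converted to Ki via Cheng-Prusoff.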
On the technique in general: TR-FRET usually uses a lanthanide donor and a delayed reading to cut background.

In assay [4] the target is T1, DDR2. Description: DDR2 LanthaScreen Europium Kinase Binding assay. The note with it: binding affinity; IC50 converted in Ki using Cheng-Prusoff; read-out: Ki DDR2. The procedure, abridged: as §1

Results on eleven compounds are retold here after patent publication US20240217967A1, “INDOLINE DERIVATIVES AS DDRS INHIBITORS” (CHIESI FARMACEUTICI S.P.A., priority 2021, published 2024).

As usually defined, the IC50 is the concentration needed to halve the response being measured. For orientation: Ki means the dissociation constant of the complex between target and ligand, obtained from inhibition or displacement. In the case of `Cc1cn(-c2cc(NC(=O)c3ccc4c(c3)N(Cc3cnc5ccccn35)CC4)cc(C(F)(F)F)c2)cn1` [Example 1, 1-(imidazo[1,2-a]pyridin-3-ylmethyl)-N-(3-(4-methyl-1H-imidazol-1-yl)-5-(trifluoromethyl)phenyl)indoline-6-carboxamide], the values for the concentration for half-maximal inhibition (IC50) at DDR2 [1] and against DDR1 [2] were 50 to 80 nM and less than 25 nM, respectively. The inhibitory constant (Ki) at DDR1 [3] and on DDR2 [4] was less than 25 nM each time.

Consider `Cc1n[nH]c2ncc(CN3CCc4ccc(C(=O)Nc5ccc(CN6CCN(C)CC6)c(C(F)(F)F)c5)cc43)cc12` [Example 65, 1-((3-methyl-1H-pyrazolo[3,4-b]pyridin-5-yl)methyl)-N-(4-((4-methylpiperazin-1-yl)methyl)-3-(trifluoromethyl)phenyl)indoline-6-carboxamide], for which the half-maximal inhibitory concentration (IC50) on DDR2 [1] is 50 to 80 nM; against DDR1 [2], less than 25 nM. The Ki on DDR1 [3] and at DDR2 [4] was less than 25 nM each time.

`Cc1n[nH]c2ncc(CN3CCc4ccc(C(=O)Nc5ccc(CN(C)C)c(C(F)(F)F)c5)cc43)cc12` [Example 69, N-(4-((dimethylamino)methyl)-3-(trifluoromethyl)phenyl)-1-((3-methyl-1H-pyrazolo[3,4-b]pyridin-5-yl)methyl)indoline-6-carboxamide]: the IC50 on DDR2 [1] and on DDR1 [2] was less than 25 nM each time. In addition, the Ki at DDR1 [3] and on DDR2 [4] was less than 25 nM throughout.

Take `Cc1cn(-c2cc(C(=O)Nc3ccc4c(c3)N(C(=O)c3cnc5[nH]ncc5c3)CC4)cc(C(F)(F)F)c2)cn1` [Example 21, N-(1-(1H-pyrazolo[3,4-b]pyridine-5-carbonyl)indolin-6-yl)-3-(4-methyl-1H-imidazol-1-yl)-5-(trifluoromethyl)benzamide]: the half-inhibitory concentration (IC50) at DDR2 [1] was less than 25 nM; at DDR1 [2], 25 to 50 nM. Further, the inhibition constant Ki at DDR1 [3] and at DDR2 [4] was less than 25 nM in each case.

Turning to `CN1CCN(Cc2cc(NC(=O)c3ccc4c(c3)N(Cc3cnc5[nH]ccc5c3)CC4)cc(C(F)(F)F)c2)CC1` [Example 9, 1-((1H-pyrrolo[2,3-b]pyridin-5-yl)methyl)-N-(3-((4-methylpiperazin-1-yl)methyl)-5-(trifluoromethyl)phenyl)indoline-6-carboxamide], the half-inhibitory concentration (IC50) at DDR2 [1] and against DDR1 [2] was less than 25 nM in each case. Moreover, the Ki on DDR1 [3] and on DDR2 [4] was less than 25 nM in each case.

As to `O=C(Nc1cc(F)cc(C(F)(F)F)c1)c1ccc2c(c1)N(Cc1cnc3[nH]ncc3c1)CC2` [Example 39, 1-((1H-pyrazolo[3,4-b]pyridin-5-yl)methyl)-N-(3-fluoro-5-(trifluoromethyl)phenyl)indoline-6-carboxamide], the IC50 on DDR2 [1] is 25 to 50 nM; at DDR1 [2], less than 25 nM. Besides, the figures for the inhibition constant Ki at DDR1 [3] and at DDR2 [4] were 25 to 50 nM and less than 25 nM, respectively.

In the case of `Cc1cn(-c2cc(C(=O)Nc3ccc4c(c3)N(Cc3cnc5cnccn35)CC4)cc(C(F)(F)F)c2)cn1` [Example 22, N-(1-(imidazo[1,2-a]pyrazin-3-ylmethyl)indolin-6-yl)-3-(4-methyl-1H-imidazol-1-yl)-5-(trifluoromethyl)benzamide], the 50% inhibitory concentration (IC50) is 25 to 50 nM at DDR2 [1] and less than 25 nM against DDR1 [2]. The inhibition constant (Ki) on DDR1 [3] and on DDR2 [4] was less than 25 nM throughout.

Regarding `Cc1cn(-c2cc(NC(=O)c3ccc4c(c3)N(Cc3cnc5cnccn35)CC4)cc(C(F)(F)F)c2)cn1` [Example 3, 1-(imidazo[1,2-a]pyrazin-3-ylmethyl)-N-(3-(4-methyl-1H-imidazol-1-yl)-5-(trifluoromethyl)phenyl)indoline-6-carboxamide], the values for the concentration for half-maximal inhibition (IC50) on DDR2 [1] and against DDR1 [2] were 50 to 80 nM and less than 25 nM, respectively. Besides, the inhibitory constant (Ki) at DDR1 [3] and on DDR2 [4] was less than 25 nM each time.

For the compound `Cc1n[nH]c2ncc(CN3CCc4ccc(C(=O)Nc5cc(C(C)(C)C)no5)cc43)cc12` [Example 80, N-(3-(tert-butyl)isoxazol-5-yl)-1-((3-methyl-1H-pyrazolo[3,4-b]pyridin-5-yl)methyl)indoline-6-carboxamide], the half-maximal inhibitory concentration (IC50) on DDR2 [1] and on DDR1 [2] was less than 25 nM each time. Further, the inhibition constant (Ki) on DDR1 [3] and on DDR2 [4] was less than 25 nM throughout.

For `CC1CN(Cc2cnc3[nH]ncc3c2)c2cc(C(=O)Nc3cccc(C(F)(F)F)c3)ccc21` (single isomer, unassigned) [Example 34, 1-((1H-pyrazolo[3,4-b]pyridin-5-yl)methyl)-3-methyl-N-(3-(trifluoromethyl)phenyl)indoline-6-carboxamide], the IC50 on DDR2 [1] is 25 to 50 nM; on DDR1 [2], less than 25 nM. Also, the Ki on DDR1 [3] and on DDR2 [4] was less than 25 nM in each case.

Take `CC(C)(c1cc(NC(=O)c2ccc3c(c2)N(Cc2cnc4[nH]ncc4c2)CC3)no1)C(F)(F)F` [Example 36, 1-((1H-pyrazolo[3,4-b]pyridin-5-yl)methyl)-N-(5-(1,1,1-trifluoro-2-methylpropan-2-yl)isoxazol-3-yl)indoline-6-carboxamide]: the IC50 at DDR2 [1] is 50 to 80 nM; against DDR1 [2], less than 25 nM. Moreover, the inhibition constant Ki at DDR1 [3] and on DDR2 [4] was less than 25 nM in each case.
